Assay results taken from patent US12564193B2, “Isoxazoline-substituted benzamide derivative, and preparation method therefor and use thereof” (SHANDONG UNITED PESTICIDE INDUSTRY CO., LTD., priority 2020, dated 2026).
Read-outs that look alike come from different tables or passages of the source.

Columns and labels:
Assay type in all cases: in vivo
[1] = system: Frankliniella occidentalis; assay: Insecticidal activity, spray on pre-infested radish plants: Frankliniella occidentalis; settings: for pest or weed control at 1 ppm / pest or weed control at 10 ppm / pest or weed control at 25 ppm: Frankliniella occidentalis, 144 h, read-out: fatality rate on Frankliniella occidentalis; for Fatality rate on Frankliniella occidentalis (%): Table 3
Protocol: (§1) For determination of insecticidal activity, the test method was as follows: a test solution with a desired concentration was prepared by dissolving a test compound sample in a suitable solvent (the kind of solvent was such as acetone, methanol, DMSO, etc., and was selected according to its dissolving ability for the sample). The test cell was composed of a small open container with 12-15 day old radish plants inside. The plants were pre-infested by placing 30-40 pests located on one leaf cut from the cultivated plant on one leaf of the test plant (leaf cutting method). As the leaves dehydrated, the pests moved on the test plants. After the pre-infesting, the soil of the test cells was covered with a layer of sand.
The test method was as follows: the test was repeated for three times, and after spraying the formulated test compound, each test unit was allowed to dry for 1 hour, and then a black mesh cover was placed at the top. The test units were kept in a growth chamber at 25° C. and 70% relative humidity for 6 days. The mortality (fatality rate) of the insects was then visually assessed for each test unit, and the fatality rate was calculated as follows:
[formula] (1) Test Results for the Control of Frankliniella occidentalis by Exemplary Example Compounds

Plutella xylostella = assay: Insecticidal activity, spray on pre-infested radish plants: Plutella xylostella; settings: for pest or weed control at 0.1 ppm / pest or weed control at 1 ppm / pest or weed control at 10 ppm: Plutella xylostella, 144 h, read-out: fatality rate on Plutella xylostella; for Fatality rate on Plutella xylostella (%): Table 3
Protocol: as §1
(§2) The test method was as follows: the test was repeated for three times, and after spraying the formulated test compound, each test unit was allowed to dry for 1 hour, and then a black mesh cover was placed at the top. The test units were kept in a growth chamber at 25° C. and 70% relative humidity for 6 days. The mortality (fatality rate) of the insects was then visually assessed for each test unit, and the fatality rate was calculated as follows: […]

Pieris rapae = assay: Insecticidal activity, spray on pre-infested radish plants: Pieris rapae; settings: 144 h, read-out: fatality rate on Pieris rapae
Protocol: as §1, §2

Mythimna separata = assay: Insecticidal activity, spray on pre-infested radish plants: Mythimna separata; settings: for pest or weed control at 0.1 ppm / pest or weed control at 1 ppm / pest or weed control at 10 ppm: Mythimna separata, 144 h, read-out: fatality rate on Mythimna separata; for Fatality rate on Mythimna separata (%): Table 3
Protocol: as §1, §2

Spodoptera litura = assay: Insecticidal activity, spray on pre-infested radish plants: Spodoptera litura; settings: 144 h, read-out: fatality rate on Spodoptera litura
Protocol: as §1, §2

Chilo suppressalis = assay: Insecticidal activity, spray on pre-infested radish plants: Chilo suppressalis; settings: for pest or weed control at 0.1 ppm / pest or weed control at 1 ppm / pest or weed control at 10 ppm: Chilo suppressalis, 144 h, read-out: fatality rate on Chilo suppressalis; for Fatality rate on Chilo suppressalis (%): Table 3
Protocol: as §1, §2

Cnaphalocrocis medinalis = assay: Insecticidal activity, spray on pre-infested radish plants: Cnaphalocrocis medinalis; settings: 144 h, read-out: fatality rate on Cnaphalocrocis medinalis
Protocol: as §1, §2

Tetranychus cinnabarinus = assay: Acaricidal activity, slide immersion of female adult mites: Tetranychus cinnabarinus; settings: read-out: fatality rate on Tetranychus cinnabarinus
Protocol: The test method was as follows: a test solution with a desired concentration was prepared by dissolving a test compound sample in a suitable solvent (the kind of solvent was such as acetone, methanol, DMSO, etc., and was selected according to its dissolving ability for the sample). A double-sided adhesive tape was cut into 2-3 cm long pieces, the pieces were attached to one end of a microscope slide, paper pieces on the adhesive tape were removed using tweezers, female adult mites which were consistent in size, bright in body color and lively in action were selected using a zero-size brush pen, the backs of the female adult mites were adhered to the double-sided adhesive tape (note: the adhesion should not cover mite feet, mite whiskers and mouthparts), with 4 rows of mites adhered to each piece and 10 heads of the mites adhered to each row.
One end of the glass slide with the mites was immersed into a drug liquid, with slightly shaking for 5 seconds, and then the slide was taken out. The excess drug liquid around the mite body and is surroundings is quickly sucked off using absorbent paper. The slide was placed in the biochemical incubator described above, and the results were checked by using binoculars after 24 hours. The mites were slightly touched by using a brush pen, the mites with immobility in feet were considered to be dead, and the fatality rate was calculated. The fatality rate was calculated as follows: […]

[2] = dose 1 ppm, immersion 5 seconds, checked after 24 hours
[3] = dose 10 ppm, immersion 5 seconds, checked after 24 hours
[4] = dose 25 ppm, immersion 5 seconds, checked after 24 hours

Cc1cc(C2=NOC(c3cc(Cl)c(F)c(Cl)c3)(C(F)(F)F)C2)ccc1C(=O)NCc1cnc(Cl)cc1C(F)(F)F (stereo not drawn) [Compound 5]
pest or weed control at 1 ppm [1]: > 80% | pest or weed control at 10 ppm [1]: > 80% | pest or weed control at 25 ppm [1]: > 80% | pest or weed control at 0.1 ppm (Plutella xylostella): > 80% | pest or weed control at 1 ppm (Plutella xylostella): > 80% | pest or weed control at 10 ppm (Plutella xylostella): > 80% | pest or weed control at 0.1 ppm (Pieris rapae): > 80% | pest or weed control at 1 ppm (Pieris rapae): > 80% | pest or weed control at 10 ppm (Pieris rapae): > 80% | pest or weed control at 0.1 ppm (Mythimna separata): > 80% | pest or weed control at 1 ppm (Mythimna separata): > 80% | pest or weed control at 10 ppm (Mythimna separata): > 80% | pest or weed control at 0.1 ppm (Spodoptera litura): > 80% | pest or weed control at 1 ppm (Spodoptera litura): > 80% | pest or weed control at 10 ppm (Spodoptera litura): > 80% | pest or weed control at 0.1 ppm (Chilo suppressalis): > 80% | pest or weed control at 1 ppm (Chilo suppressalis): > 80% | pest or weed control at 10 ppm (Chilo suppressalis): > 80% | pest or weed control at 0.1 ppm (Cnaphalocrocis medinalis): > 80% | pest or weed control at 1 ppm (Cnaphalocrocis medinalis): > 80% | pest or weed control at 10 ppm (Cnaphalocrocis medinalis): > 80% | pest or weed control at 1 ppm (Tetranychus cinnabarinus; 24 h): > 80% | pest or weed control at 10 ppm (Tetranychus cinnabarinus; 24 h): > 80% | pest or weed control at 25 ppm (Tetranychus cinnabarinus; 24 h): > 80%

Cc1cc(C2=NOC(c3cc(F)c(F)c(F)c3)(C(F)(F)F)C2)ccc1C(=O)NCc1ccc(Cl)nc1 (stereo not drawn) [Compound 2, N-((6-chloropyridin-3-yl)methyl)-2-methyl-4-(5-(trifluoromethyl)-5-(3,4,5-trifluorophenyl)-4,5-dihydroisoxazol-3-yl)benzamide]
Fatality rate on Frankliniella occidentalis (%) ([1]; 1 ppm): 90% | Fatality rate on Frankliniella occidentalis (%) ([1]; 10 ppm): 100% | Fatality rate on Frankliniella occidentalis (%) ([1]; 25 ppm): 100% | pest or weed control at 1 ppm ([1]; dose 1 ppm, spray, 6 days): > 80% | pest or weed control at 10 ppm ([1]; dose 10 ppm, spray, 6 days): > 80% | pest or weed control at 25 ppm ([1]; dose 25 ppm, spray, 6 days): > 80% | Fatality rate on Plutella xylostella (%) (Plutella xylostella; 0.1 ppm): 85% | Fatality rate on Plutella xylostella (%) (Plutella xylostella; 1 ppm): 100% | Fatality rate on Plutella xylostella (%) (Plutella xylostella; 10 ppm): 100% | pest or weed control at 0.1 ppm (Plutella xylostella; dose 0.1 ppm, spray, 6 days): > 80% | pest or weed control at 1 ppm (Plutella xylostella; dose 1 ppm, spray, 6 days): > 80% | pest or weed control at 10 ppm (Plutella xylostella; dose 10 ppm, spray, 6 days): > 80% | pest or weed control at 0.1 ppm (Pieris rapae; dose 0.1 ppm, spray, 6 days): > 80% | pest or weed control at 1 ppm (Pieris rapae; dose 1 ppm, spray, 6 days): > 80% | pest or weed control at 10 ppm (Pieris rapae; dose 10 ppm, spray, 6 days): > 80% | Fatality rate on Mythimna separata (%) (Mythimna separata; 0.1 ppm): 85% | Fatality rate on Mythimna separata (%) (Mythimna separata; 1 ppm): 100% | Fatality rate on Mythimna separata (%) (Mythimna separata; 10 ppm): 100% | pest or weed control at 0.1 ppm (Mythimna separata; dose 0.1 ppm, spray, 6 days): > 80% | pest or weed control at 1 ppm (Mythimna separata; dose 1 ppm, spray, 6 days): > 80% | pest or weed control at 10 ppm (Mythimna separata; dose 10 ppm, spray, 6 days): > 80% | pest or weed control at 0.1 ppm (Spodoptera litura; dose 0.1 ppm, spray, 6 days): > 80% | pest or weed control at 1 ppm (Spodoptera litura; dose 1 ppm, spray, 6 days): > 80% | pest or weed control at 10 ppm (Spodoptera litura; dose 10 ppm, spray, 6 days): > 80% | Fatality rate on Chilo suppressalis (%) (Chilo suppressalis; 0.1 ppm): 80% | Fatality rate on Chilo suppressalis (%) (Chilo suppressalis; 1 ppm): 100% | Fatality rate on Chilo suppressalis (%) (Chilo suppressalis; 10 ppm): 100% | pest or weed control at 0.1 ppm (Chilo suppressalis; dose 0.1 ppm, spray, 6 days): > 80% | pest or weed control at 1 ppm (Chilo suppressalis; dose 1 ppm, spray, 6 days): > 80% | pest or weed control at 10 ppm (Chilo suppressalis; dose 10 ppm, spray, 6 days): > 80% | pest or weed control at 0.1 ppm (Cnaphalocrocis medinalis; dose 0.1 ppm, spray, 6 days): > 80% | pest or weed control at 1 ppm (Cnaphalocrocis medinalis; dose 1 ppm, spray, 6 days): > 80% | pest or weed control at 10 ppm (Cnaphalocrocis medinalis; dose 10 ppm, spray, 6 days): > 80% | pest or weed control at 1 ppm (Tetranychus cinnabarinus; [2]): > 80% | pest or weed control at 10 ppm (Tetranychus cinnabarinus; [3]): > 80% | pest or weed control at 25 ppm (Tetranychus cinnabarinus; [4]): > 80%

Cc1cc(C2=NOC(c3cc(F)c(F)c(F)c3)(C(F)(F)F)C2)ccc1C(=O)NCCc1ncc(C(F)(F)F)cc1Cl (stereo not drawn) [Compound 20]
pest or weed control at 1 ppm ([1]; dose 1 ppm, spray, 6 days): > 80% | pest or weed control at 10 ppm ([1]; dose 10 ppm, spray, 6 days): > 80% | pest or weed control at 25 ppm ([1]; dose 25 ppm, spray, 6 days): > 80% | pest or weed control at 0.1 ppm (Plutella xylostella; dose 0.1 ppm, spray, 6 days): > 80% | pest or weed control at 1 ppm (Plutella xylostella; dose 1 ppm, spray, 6 days): > 80% | pest or weed control at 10 ppm (Plutella xylostella; dose 10 ppm, spray, 6 days): > 80% | pest or weed control at 0.1 ppm (Pieris rapae; dose 0.1 ppm, spray, 6 days): > 80% | pest or weed control at 1 ppm (Pieris rapae; dose 1 ppm, spray, 6 days): > 80% | pest or weed control at 10 ppm (Pieris rapae; dose 10 ppm, spray, 6 days): > 80% | pest or weed control at 0.1 ppm (Mythimna separata; dose 0.1 ppm, spray, 6 days): > 80% | pest or weed control at 1 ppm (Mythimna separata; dose 1 ppm, spray, 6 days): > 80% | pest or weed control at 10 ppm (Mythimna separata; dose 10 ppm, spray, 6 days): > 80% | pest or weed control at 0.1 ppm (Spodoptera litura; dose 0.1 ppm, spray, 6 days): > 80% | pest or weed control at 1 ppm (Spodoptera litura; dose 1 ppm, spray, 6 days): > 80% | pest or weed control at 10 ppm (Spodoptera litura; dose 10 ppm, spray, 6 days): > 80% | pest or weed control at 0.1 ppm (Chilo suppressalis; dose 0.1 ppm, spray, 6 days): > 80% | pest or weed control at 1 ppm (Chilo suppressalis; dose 1 ppm, spray, 6 days): > 80% | pest or weed control at 10 ppm (Chilo suppressalis; dose 10 ppm, spray, 6 days): > 80% | pest or weed control at 0.1 ppm (Cnaphalocrocis medinalis; dose 0.1 ppm, spray, 6 days): > 80% | pest or weed control at 1 ppm (Cnaphalocrocis medinalis; dose 1 ppm, spray, 6 days): > 80% | pest or weed control at 10 ppm (Cnaphalocrocis medinalis; dose 10 ppm, spray, 6 days): > 80% | pest or weed control at 1 ppm (Tetranychus cinnabarinus; [2]): > 80% | pest or weed control at 10 ppm (Tetranychus cinnabarinus; [3]): > 80% | pest or weed control at 25 ppm (Tetranychus cinnabarinus; [4]): > 80%
